Residues, ends and D or L forms follow the SMILES beside them. *: point of attachment. Cbz = O=C(OCc1ccccc1)*
Tests used:
[1] = tested on: PCa cell; details: in vitro and in vivo; cited from earlier work
[2] = tested on: wild type AR, ARv7, AR-F876L; details: cited from earlier work
[3] = target: T1, ARv7 (Homo sapiens, UniProt P10275); assay: ARv7 protein expression/degradation in CRPC cells (western blot); format: cell-based
T1 construct: endogenous in cells; host or cells: EnzR1 C4-2, EnzR3 C4-2B, EnzR2 CWR22Rv1
T1 sequence (P10275 1-644 isoform P10275-3): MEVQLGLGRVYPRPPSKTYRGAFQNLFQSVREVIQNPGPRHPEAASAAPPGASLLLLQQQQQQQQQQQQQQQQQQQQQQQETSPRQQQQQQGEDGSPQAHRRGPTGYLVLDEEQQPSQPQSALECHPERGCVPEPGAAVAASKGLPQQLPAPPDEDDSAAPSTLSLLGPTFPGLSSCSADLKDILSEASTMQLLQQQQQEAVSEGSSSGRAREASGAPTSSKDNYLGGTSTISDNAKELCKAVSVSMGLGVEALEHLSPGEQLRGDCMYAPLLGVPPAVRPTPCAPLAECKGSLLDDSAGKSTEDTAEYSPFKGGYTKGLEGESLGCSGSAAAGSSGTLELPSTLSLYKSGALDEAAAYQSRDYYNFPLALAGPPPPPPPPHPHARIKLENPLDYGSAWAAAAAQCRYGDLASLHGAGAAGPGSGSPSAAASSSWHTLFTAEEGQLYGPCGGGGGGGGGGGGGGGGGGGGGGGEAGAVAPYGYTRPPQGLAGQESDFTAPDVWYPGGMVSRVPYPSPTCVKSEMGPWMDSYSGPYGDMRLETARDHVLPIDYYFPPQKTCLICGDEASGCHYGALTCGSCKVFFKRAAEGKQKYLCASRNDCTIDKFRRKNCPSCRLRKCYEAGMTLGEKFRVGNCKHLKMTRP
Procedure: (§1) To further dissect the mechanism(s) why Cis can decrease ARv7 (and AR) protein expression, first assayed was the Cis effects on ARv7 (and AR) protein stability with protein biosynthesis inhibitor, cycloheximide (CHX) and proteasome inhibitor MG132 in EnzR2-CWR22Rv1 cells.
(§2) For protein degradation, EnzR C4-2 cells were treated with 1 μg/mL Cisplatin for 6 hr. Cycloheximide or MG132 was added for another 4 hrs. For ubiquitination, human kidney epithelial HEK293T cells were grown in DMEM media with 10% FCS. Cells were plated at ˜60% confluency and pGFP-ubiquitin, pAR were transiently transfected into cells using CaCl2 reagent. After 48 hrs. of transfection, cells were treated with 1 μg/mL Cisplatin for 6 hrs. […], MG132, was added for another 4 hrs. Cell extracts were analyzed for AR degradation or AR-ubiquitination by using western blot.
(§3) Cells were lysed in lysis buffer and proteins (50 μg) were separated on 10% SDS/PAGE gel and then transferred onto PVDF membranes (Millipore, Billerica, Mass.). After blocking membranes with 5% milk, they were incubated with appropriate dilutions of specific primary antibodies (anti-AR (N-20), anti-SF2, anti-GFP, anti-GAPDH, anti-a-tubulin). The blots were incubated with HRP-conjugated secondary antibodies and visualized using ECL system (Thermo Fisher Scientific, Rochester, N.Y.).

[4] = CRPC patients; cited from earlier work
[5] = tested on: EnzR1-C4-2 cells; assay: MTT cell proliferation assay, EnzR1-C4-2; format: cell-based
Procedure: (§4) Cells were seeded in 24-well plates (5×10^3 cells/500 μL media per well) and cultured for 0, 2, 4 and 6 days. Cells were harvested and cell numbers and absorbance were calculated and recorded after using yellow tetrazolium MTT (3-(4, 5-dimethylthiazolyl-2)-2,5-diphenyltetrazolium bromide agent.

[6] = tested on: Enz-S1-C4-2 cells; assay: Enz sensitivity after 2 months treatment (MTT proliferation); format: cell-based
Procedure: as §4

[7] = tested on: ARv7 mRNA; assay: ARv7 mRNA expression (real-time PCR); format: cell-based
Procedure: (§5) Total RNAs were isolated using Trizol reagent (Invitrogen, Grand Island, N.Y.). 2 μg of total RNA was subjected to reverse transcription using Superscript III transcriptase (Invitrogen). Quantitative real-time PCR (qRT-PCR) was conducted using a Bio-Rad CFX96 system with SYBR green to determine the mRNA expression level of a gene of interest. Expression levels were normalized to the expression of GAPDH.

[8] = tested on: AR promoter; assay: AR promoter luciferase assay (pAR-luc) in EnzR2-CWR22Rv1 cells; format: cell-based; details: 1 ug/mL Cis, FIG. 5B
Excerpt: In addition to function via altering the AR-ubiquitination to decrease ARv7 (and AR) protein expression and modulating the Malat1/SF2 RNA splicing complex to decrease ARv7 mRNA biosynthesis/expression, it is interesting to see the potential 3rd molecular mechanism at transcriptional regulation to alter the AR expression for Cis to decrease ARv7 mRNA expression. […] A 3.6 kb AR promoter was then constructed into pGL3 luciferase vector (pAR-luc) and transfected pAR-luc into EnzR2-CWR22Rv1 cells for luciferase assay.

[9] = tested on: EnzR2-CWR22Rv1 cells; assay: Orthotopic EnzR xenograft in castrated nude mice; format: in vivo
[10] = tested on: lncRNA RP11-473I1.9; assay: lncRNA RP11-473I1.9 expression (real-time PCR); format: cell-based; details: FIG. 4G
Procedure: as §5

[11] = tested on: AR; assay: AR protein expression/degradation in CRPC cells (western blot); format: cell-based
Procedure: as §1, §2, §3

[12] = tested on: Malat1; assay: Malat1 mRNA expression (real-time PCR); format: cell-based; details: EnzR1-C4-2 cells, FIG. 4F
Procedure: as §5

[13] = tested on: cPARP; assay: Cell apoptosis by cPARP level; format: cell-based
[14] = tested on: glucocorticoid receptor (GR); assay: Glucocorticoid receptor expression; format: cell-based
[15] = tested on: EnzR3-C4-2B cells; assay: MTT cell proliferation assay, EnzR3-C4-2B; format: cell-based; details: FIG. 2H
Procedure: as §4

[16] = tested on: EnzR2-CWR22Rv1 cells; assay: MTT cell proliferation assay, EnzR2-CWR22Rv1; format: cell-based; details: FIG. 2E
Procedure: as §4

[17] = tested on: SF2; assay: SF2 protein level; format: cell-based
SF2, sequence (Q07955 whole entry): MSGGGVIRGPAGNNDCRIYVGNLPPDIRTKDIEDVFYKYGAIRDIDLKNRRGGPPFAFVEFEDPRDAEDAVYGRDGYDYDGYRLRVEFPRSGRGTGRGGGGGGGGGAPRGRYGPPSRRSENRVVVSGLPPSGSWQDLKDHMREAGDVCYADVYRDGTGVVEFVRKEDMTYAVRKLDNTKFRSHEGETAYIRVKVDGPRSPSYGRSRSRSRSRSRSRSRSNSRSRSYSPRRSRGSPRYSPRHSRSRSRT
Procedure: as §3

[18] = tested on: AR-ubiquitin complex; assay: AR-ubiquitination immunoprecipitation in 293T cells; format: cell-based, human; details: 293T cells with AR and ubiquitin-GPF, FIG. 4D
Procedure: Then examined was whether ubiquitination involves in ARv7 (and AR) degradation. First added were AR and ubiquitin-GPF in 293T cells, and then applied the immunoprecipitation assay to examine Cis effect on AR-ubiquitination.
as §2

[19] = tested on: estrogen receptor b (ERb); assay: Estrogen receptor b expression; format: cell-based
[20] = tested on: AR mRNA; assay: AR mRNA expression (real-time PCR); format: cell-based; details: FIG. 5A
Procedure: as §5

[21] = target: T2, AR mutant AR876 (Homo sapiens, UniProt P10275, F877L); assay: AR876 expression in PC3 cells stably transfected with AR876-cDNA; format: cell-based; details: FIG. 1G
T2 construct: expressed in transfected cells; host or cells: PC3
T2 sequence (P10275 1-920 F877L): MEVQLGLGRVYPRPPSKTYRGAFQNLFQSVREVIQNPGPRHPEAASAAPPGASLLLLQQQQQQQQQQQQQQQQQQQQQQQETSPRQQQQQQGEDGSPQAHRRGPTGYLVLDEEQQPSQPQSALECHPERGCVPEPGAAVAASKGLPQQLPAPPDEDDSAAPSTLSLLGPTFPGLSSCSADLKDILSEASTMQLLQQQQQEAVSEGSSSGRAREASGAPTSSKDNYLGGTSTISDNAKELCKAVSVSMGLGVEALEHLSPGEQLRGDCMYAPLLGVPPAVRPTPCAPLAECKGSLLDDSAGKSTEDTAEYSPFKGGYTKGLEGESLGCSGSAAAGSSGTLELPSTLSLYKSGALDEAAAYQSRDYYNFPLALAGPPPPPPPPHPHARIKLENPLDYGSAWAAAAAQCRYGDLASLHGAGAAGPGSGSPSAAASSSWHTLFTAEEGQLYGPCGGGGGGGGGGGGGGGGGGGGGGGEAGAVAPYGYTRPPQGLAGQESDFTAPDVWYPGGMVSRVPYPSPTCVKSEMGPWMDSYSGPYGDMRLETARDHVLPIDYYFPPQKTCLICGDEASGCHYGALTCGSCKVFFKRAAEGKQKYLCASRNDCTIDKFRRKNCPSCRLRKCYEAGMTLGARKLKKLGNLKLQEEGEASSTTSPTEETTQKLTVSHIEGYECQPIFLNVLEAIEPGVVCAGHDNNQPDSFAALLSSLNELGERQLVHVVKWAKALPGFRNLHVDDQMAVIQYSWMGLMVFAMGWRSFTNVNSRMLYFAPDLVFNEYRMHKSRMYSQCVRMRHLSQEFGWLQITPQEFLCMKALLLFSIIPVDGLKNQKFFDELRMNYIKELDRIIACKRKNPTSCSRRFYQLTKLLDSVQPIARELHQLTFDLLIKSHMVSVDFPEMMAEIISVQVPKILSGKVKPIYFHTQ
Procedure: as §3

[22] = EnzR2-CWR22Rv1 cells, after 6 hrs treatment, FIG. 4A
[23] = EnzR3-C4-2 cells, Cis at 1 ug/mL, FIG. 2J
[24] = EnzS1-C4-2 cells, Cis at 1-2 ug/mL, FIG. 2I

Compound: O=C(Nc1ccc([N+](=O)[O-])cc1Cl)c1cc(Cl)ccc1O [niclosamide]
- PCa cell growth [1]: suppress the PCa cell growth in vitro and in vivo

Compound: CC(O)(CS(=O)(=O)c1ccc(F)cc1)C(=O)Nc1ccc(C#N)c(C(F)(F)F)c1 (stereo not shown) [Casodex]
- degradation of wild type AR, ARv7 and AR mutants including AR-F876L [2]: not

Compound: COc1ccc(/C=C/C(=O)/C=C(O)/C=C/c2ccc(OC)c(OC)c2)cc1OC [ASC-J9®]
- degradation of wild type AR, ARv7 and AR mutants including AR-F876L [2]: could degrade both wild type AR and the AR variant ARv7 or AR mutants including AR-F876L

Compound: CC(C)C[C@@H](C=O)NC(=O)[C@H](CC(C)C)NC(=O)[C@H](CC(C)C)NC(=O)OCc1ccccc1 [MG132] (Cbz-Leu-Leu-Leu-aldehyde)
- effect on Cis-induced ARv7 (and AR) degradation ([3]; MG132 with Cis 6 hrs, FIG. 4B): attenuate/inhibit the effect of Cis on ARv7 (and AR) degradation

Compound: CNC(=O)c1ccc(N2C(=S)N(c3ccc(C#N)c(C(F)(F)F)c3)C(=O)C2(C)C)cc1F [Enz, 4-(3-(4-Cyano-3-(trifluoromethyl)phenyl)-5,5-dimethyl-4-oxo-2-thioxoimidazolidin-1-yl)-2-fluoro-N-methylbenzamide]
- extension of overall survival (average) [4]: 4.8 months
- suppression of cell growth ([5]; 20 uM Enz alone, FIG. 2A): little effect
- Enz sensitivity ([6]; Enz-S1-C4-2 cells before long-term treatment, FIG. 3A): 54%
- Enz sensitivity ([6]; after 10 uM Enz alone for 2 months, FIG. 3B): 38%
- ARv7 mRNA expression ([7]; Enz-S1-C4-2 cells, Enz treatment, FIG. 3D): led to increase ARv7 mRNA expression

Compound: (SP-4-2)-diamminedichloroplatinum(II) [Cis]
- AR promoter activity (pAR-luc luciferase) [8]: can also decrease AR mRNA expression at transcriptional level via altering AR promoter activity
- tumor progression ([9]; Enz 3.5 mg/kg every other day i.p. with vs without Cis 3.5 mg/kg weekly i.v., 3 weeks): can increase/restore the Enz sensitivity to further suppress the EnzR3-C4-2B tumor progression
- tumor expression of ARv7 (and AR), Malat1 and SF2 (immunohistochemistry) ([9]; tumor received Cis+Enz): lower expression of ARv7 (and AR), as well as Malat1 and SF2
- suppression of cell growth ([5]; 20 uM Enz combined with 2 ug/mL (6.6 uM) Cis, FIG. 2B): could suppress EnzR1-C4-2 cell growth
- IC50 (cell growth) ([5]; Cis combined with 20 uM Enz, FIG. 2C): ~5 µg/mL
- IC50 ([5]; Cis combined with 20 uM Enz, FIG. 2C, read-out: IC50 (cell growth)): ~16.5 µM
- Enz sensitivity ([6]; after 10 uM Enz plus 0.2 ug/mL (0.66 uM) Cis for 2 months, FIG. 3C): 62%
- lncRNA RP11-473I1.9 expression [10]: little effect
- ARv7 (and AR877) degradation ([3]; CWR22Rv1 cells, Cis plus CHX compared to CHX alone, FIG. 4C): can facilitate ARv7 (and AR877) degradation
- ARv7 expression ([3]; EnzR1-C4-2 cells, increasing Cis, FIG. 1B): diminishing ARv7 was detected upon increasing Cis
- ARv7 protein degradation [3, 22]: could degrade ARv7 (and AR)
- AR expression ([11]; EnzR1-C4-2 cells, FIG. 1B): could suppress the AR
- AR protein degradation [11, 22]: could degrade ARv7 (and AR)
- AR degradation [11, 23]: may degrade AR
- AR degradation [11, 24]: could degrade AR
- AR expression ([11]; EnzS1-C4-2 cells, FIG. 1A): could suppress the AR
- Malat1 mRNA expression [12]: decreased in dose-dependent manner
- cell apoptosis (cPARP) [13, 23]: little change in cPARP
- cell apoptosis (cPARP) [13, 24]: little change in cPARP
- GR expression [14]: little effect to decrease
- IC50 (cell growth) [15]: 3.3 µg/mL
- IC50 ([15]; read-out: IC50 (cell growth)): 10.9 µM
- IC50 (cell growth) [16]: 5 µg/mL
- IC50 ([16]; read-out: IC50 (cell growth)): 16.5 µM
- SF2 protein expression [17]: may decrease SF2 protein expression in a dose-dependent manner
- ARv7 mRNA expression ([7]; Enz-S1-C4-2 cells, Enz plus Cis (0.2 ug/mL), FIG. 3D): suppressed the Enz-increased ARv7 significantly
- ARv7 mRNA expression ([7]; EnzR1-C4-2 cells, FIG. 4E): decreased in dose-dependent manner
- AR-ubiquitin complex [18]: may increase the AR-ubiquitin complex
- ERb expression [19]: little effect to decrease
- AR mRNA [20]: could also decrease AR mRNA in a dose-dependent manner
- AR876 expression [21]: can also decrease

Source: patent US20180055915A1, “COMPOSITIONS AND METHODS FOR TREATING PROSTATE CANCER” (UNIVERSITY OF ROCHESTER, priority 2016, published 2018)
